Source: patent US20190060340A1, “NOVEL AMINOGLYCOSIDES AND USES THEREOF IN THE TREATMENT OF GENETIC DISORDERS” (Technion Research & Development Foundation Limited, priority 2007, published 2019)
Converted amounts (≈) assume the structure as drawn. “And” between values parts separate entries of the source, which are not always exact repeats. Identical values can stand only once.

Columns and labels:
[1] = tested on: R3X nonsense mutation (a premature UGA C stop codon) of the PCDH15 gene; test: In vitro suppression and translation, pDB650-R3X reporter plasmid in rabbit reticulocyte lysate coupled transcription/translation system; format: biochemical, human; conditions: for Conc. (concentration at which maximal suppression level was observed) / Supp. level (%), maximal in-vitro mutation suppression: R3X mutation; for Supp. level (%), maximal in-vitro mutation suppression: 35-kDa product out of total protein; for Supp. level (%), maximal in-vitro mutation suppression / Trans. level (%): at Conc. of maximal suppression; for Concentration (μM) at which maximal suppression was observed, R3X / suppression level (%), maximum in vitro, R3X: Table 20; for suppression level (%), maximum in vitro, R3X: at concentration of maximal suppression; for Trans. level (%): total protein relative to no compound
Description: Initially, Compounds 1-9 were tested for their ability to suppress this nonsense mutation in vitro, using a reporter construct carrying the R3X nonsense mutation (a premature UGA C stop codon) of the PCDH15 gene. Mutations in the PCDH15 gene which encodes protocardherin 15, cause type 1 Usher syndrome (USH1), which is characterized by profound prelingual hearing loss, vestibular areflexia, and prepubertal onset of retinitis pigmentosa (RP). Four different PCDH15 USH1-causing nonsense mutations, R3X, R245X, R643X, and R929X, have been reported in humans.
Suppression of nonsense mutations by Compounds 1-9 was tested in vitro using a reporter plasmid harboring the R3X mutation of the PCDH15 gene. To create this plasmid, the oligonucleotides 5′-[…]-3′ (SEQ ID NO: 1) and 5′-[…]-3′ (SEQ ID NO: 2) were annealed to each other and inserted into the BamHI and HindIII sites of plasmid pDB650 [6].
The resulting reporter plasmid pDB650-R3X contained a TGA C nonsense mutation between a 25-kDa polypeptide encoding open reading frame (ORF) and a 10-kDa polypeptide encoding ORF.
The plasmid was transcribed and translated in a rabbit reticulocyte lysate coupled transcription/translation system (Promega) in the presence of [^35S]-methionine, and the reaction products were separated by SDS-PAGE and quantified using Phosphorlmager analysis. The mutation suppression level was calculated as the relative proportion of the 35-kDa product out of total protein (the sum of 35-kDa and 25-kDa), and the translation level was calculated as the relative proportion of the total protein at each tested compound concentration out of the total protein without the presence of the tested compounds.
The tested concentrations of paromomycin were 0, 5, 10, 20, 30 and 40 μg/ml, tested concentrations of gentamicin were 0, 5, 10, 20, and 30 μg/ml, and the tested concentrations of Compounds 1-9 were in the range of 0-160 μg/ml.
(§1) Compound 37 was tested for its ability to suppress a nonsense mutation in-vitro, using a reporter construct carrying either R3X nonsense mutation (a premature UGA C stop codon) or R245X nonsense mutation (a premature UGA A stop codon) of the PCDH15 gene, using gentamicin, paromomycin and Compound 3 as standards and following the experimental procedures presented hereinabove.
(§2) For the rat-PGM-β-Gal in vitro readthrough system, the pDB series of reporter plasmids harbor the following elements under SP6 promoter control: an open reading frame (ORF) derived from the 5′ end of the rat PGM gene, which encodes a 25-kDa polypeptide; another small ORF, encoding the 10-kDa alpha complementation region of β-galactosidase, and terminated by tandem, in-frame stop codons (UAA UAG); located between the two ORFs is a DNA fragment derived from PCDH15 cDNA, including the tested stop mutation or the corresponding wild-type codon, and six upstream and downstream flanking codons (except for p.R3X constructs, in which there are only two upstream PCDH15-flanking codons). The fragments were created by annealing the following couples of complementary oligonucleotides:
(§3) The fragments were inserted into the BamHI and HindIII restriction sites of the pDB read-through construct. Reporter plasmids harboring each of the four nonsense mutations and the corresponding wt alleles were in vitro transcribed and translated using the TNT SP6 Coupled Reticulocyte lysate System (Promega) in the presence of [^35S]-methionine and increasing concentrations of aminoglycosides as described previously. […] The degree of suppression was calculated as the relative proportion of the 35-kDa product out of total reaction products (35-kDa and 25-kDa polypeptides). The results are averages of at least three independent experiments.

[2] = tested on: R245X nonsense mutation (a premature UGA A stop codon) of the PCDH15 gene; test: In vitro suppression, pDB reporter plasmid in reticulocyte lysate; format: biochemical, human; conditions: for Concentration (μM) at which maximal suppression was observed, R245X / suppression level (%), maximum in vitro, R245X: Table 20; for suppression level (%), maximum in vitro, R245X: at concentration of maximal suppression; for difference in suppression of R3X versus R245X: maximal suppression levels
Description: as §1, §2, §3

[3] = tested on: G542X (CFTR, Cystic Fibrosis); test: Dual luciferase in vitro transcription/translation assay; format: biochemical, human
From the text: (§4) DNA fragments derived from the subsequent genes, including the tested stop mutation or the corresponding wild-type codon, and four upstream and downstream flanking codons (except for p.R3X constructs, in which there are only two upstream PCDH15-flanking codons) were cloned into p2Luc plasmid between renilla and firefly luciferase genes as described previously. The formed plasmids, as well as the original p2Luc plasmid containing a TGA C nonsense mutation, were transcribed and translated in vitro and the stop codon suppression efficiency was calculated as described previously.
(§5) For the dual luciferase in vitro transcription/translation assay, DNA fragments derived from PCDH15, CFTR, Dystrophin and IDUA cDNAs, including the tested stop mutation or the corresponding wild-type codon, and four upstream and downstream flanking codons (except for p.R3X constructs, in which there are only two upstream PCDH15-flanking codons) were created by annealing the couples of complementary oligonucleotides presented above.
(§6) Fragments were inserted into the SalI and SacI restriction sites of the p2Luc plasmid between renilla and firefly luciferase genes. The afforded plasmids, as well as the original p2Luc plasmid containing a TGA C nonsense mutation, were transcribed and translated using the TNT Reticulocyte Lysate Quick Coupled Transcription/Translation System (Promega™). Each transcription/translation reaction (10 μl, total volume) contained 8 μl TNT T7 Quick Master Mix, 0.2 μl methionine (1 mM), 0.8 μl DNA template (2 μg/μl), 1 μl of either water (blank) or 1 μl solution of increasing concentrations of the tested aminoglycosides in water. Luciferase activity was determined following 90 minutes incubation at 30° C. using the Dual Luciferase Reporter Assay System (Promega™). The total luminescence produced by each one of the proteins was measured separately using the FLx800 multidetection plate reader (Bio-Tek) and the stop codon suppression efficiency was calculated as described previously. The results are averages of at least three independent experiments.

[4] = tested on: Q70X (IDUA, Hurler Syndrome); test: as above; format: biochemical, human
From the text: as §4, §5, §6

[5] = tested on: R245X (PCDH15, Usher Syndrome); test: as above; format: biochemical, human
From the text: as §4, §5, §6

[6] = tested on: R3381X (Dystrophin, Duchenne Muscular Dystrophy); test: as above; format: biochemical, human
From the text: as §4, §5, §6

[7] = tested on: R3X (PCDH15, Usher Syndrome); test: as above; format: biochemical, human
From the text: as §4, §5, §6

[8] = tested on: W1282X (CFTR, Cystic Fibrosis); test: as above; format: biochemical, human
From the text: as §4, §5, §6

[9] = tested on: W402X (IDUA, Hurler Syndrome); test: as above; format: biochemical, human
From the text: as §4, §5, §6

[10] = tested on: Escherichia coli (R477-100); test: Antibacterial activity, MIC; format: cell-based; conditions: for MIC: Escherichia coli, read-out: minimal inhibitory concentration (MIC)
[11] = tested on: prokaryotic translation; test: Inhibition of prokaryotic translation; format: biochemical; conditions: for preference for inhibiting translation in prokaryotes versus eukaryotes: from IC50 values

NC[C@H]1O[C@@H](O[C@@H]2[C@@H](O)[C@H](N)C[C@H](N)[C@H]2O[C@H]2O[C@H](CO)[C@@H](O)[C@H](O)[C@H]2N)[C@H](O)[C@@H]1O [Compound 3]
Conc. (concentration at which maximal suppression level was observed) ([1]; in vitro): 80 µg/mL | Supp. level (%), maximal in-vitro mutation suppression [1]: 21 ± 3% | fold higher activity compared to Compound 1 ([1]; R3X, in vitro): over 3 fold | fold higher suppression level compared to Compound 2 ([1]; R3X, in vitro): 13 fold | Concentration (μM) at which maximal suppression was observed, R3X [1]: 142 µM | suppression level (%), maximum in vitro, R3X [1]: 21% and 21 ± 9% | Concentration (μM) at which maximal suppression was observed, R245X [2]: 178 µM | suppression level (%), maximum in vitro, R245X [2]: 6.0 ± 0.3% | difference in suppression of R3X versus R245X [2]: 3.5 fold | Maximum in vitro suppression (%) G542X [3]: 0.63 ± 0.29% | Maximum in vitro suppression (%) Q70X [4]: 2.0 ± 0.4% | Maximum in vitro suppression (%) R245X [5]: 0.98 ± 0.30% | Maximum in vitro suppression (%) R3381X [6]: 1.8 ± 0.2% | Maximum in vitro suppression (%) R3X [7]: 2.9 ± 0.9% | Maximum in vitro suppression (%) W1282X [8]: 1.6 ± 0.4% | Maximum in vitro suppression (%) W402X [9]: 3.2 ± 0.4% | MIC [10]: 790 µM (≈ 359 µg/mL) | efficacy of inhibiting prokaryotic ribosome relative to gentamicin and paromomycin [11]: significantly lower | preference for inhibiting translation in prokaryotes versus eukaryotes [11]: about two-order of magnitude

NCC[C@H](O)C(=O)N[C@@H]1CC(N)[C@@H](O[C@H]2OC(CO)[C@@H](O)C(O)C2N)C(O[C@@H]2O[C@H](CN)C(O)C2O)C1O (some centres unmarked) [Compound 37]
Concentration (μM) at which maximal suppression was observed, R3X [1]: 153 µM | suppression level (%), maximum in vitro, R3X [1]: 71% and 71 ± 9% | Concentration (μM) at which maximal suppression was observed, R245X [2]: 153 µM | suppression level (%), maximum in vitro, R245X [2]: 40.5% and 40.5 ± 7.5% | fold better suppression of R245X than Compound 3 ([2]; maximal suppression level): 6.5 fold | fold better suppression of R245X than gentamicin ([2]; maximal suppression level): 3.6 fold | fold better suppression of R245X than paromomycin ([2]; maximal suppression level): 4.5 fold | difference in suppression of R3X versus R245X [2]: 1.8 fold | Maximum in vitro suppression (%) G542X [3]: 5.1 ± 0.6% | Maximum in vitro suppression (%) Q70X [4]: 10.6 ± 1.1% | Maximum in vitro suppression (%) R245X [5]: 4.9 ± 0.5% | Maximum in vitro suppression (%) R3381X [6]: 7.8 ± 0.8% | Maximum in vitro suppression (%) R3X [7]: 29.2 ± 3.1% | Maximum in vitro suppression (%) W1282X [8]: 3.3 ± 0.4% | Maximum in vitro suppression (%) W402X [9]: 21.9 ± 4.4% | MIC [10]: 384 µM (≈ 213 µg/mL) | efficacy of inhibiting prokaryotic ribosome relative to gentamicin and paromomycin [11]: significantly lower | preference for inhibiting translation in prokaryotes versus eukaryotes [11]: about two-order of magnitude

NC[C@@H]1O[C@H](O[C@H]2[C@@H](O)[C@H](O[C@@H]3[C@@H](O)[C@H](N)C[C@H](N)[C@H]3O[C@H]3O[C@H](CO)[C@@H](O)[C@H](O)[C@H]3N)O[C@@H]2CO)[C@H](N)[C@@H](O)[C@@H]1O [paromomycin, reference compound]
Conc. (concentration at which maximal suppression level was observed) ([1]; in vitro): 40 µg/mL | Supp. level (%), maximal in-vitro mutation suppression [1]: 49% | Supp. level (%), maximal in-vitro mutation suppression ([1]; listed as Paromomycin): 49 ± 6% | Concentration (μM) at which maximal suppression was observed, R3X [1]: 56 µM | suppression level (%), maximum in vitro, R3X [1]: 49 ± 6% | Trans. level (%) [1]: about 40% | Trans. level (%) ([1]; listed as Paromomycin): 40 ± 13% | Concentration (μM) at which maximal suppression was observed, R245X [2]: 42 µM | suppression level (%), maximum in vitro, R245X [2]: 9 ± 3% | difference in suppression of R3X versus R245X [2]: 5.4 fold | Maximum in vitro suppression (%) G542X [3]: 0.74 ± 0.08% | Maximum in vitro suppression (%) Q70X [4]: 2.2 ± 0.5% | Maximum in vitro suppression (%) R245X [5]: 0.71 ± 0.32% | Maximum in vitro suppression (%) R3381X [6]: 2.4 ± 0.3% | Maximum in vitro suppression (%) R3X [7]: 9.4 ± 0.5% | Maximum in vitro suppression (%) W1282X [8]: 1.2 ± 0.2% | Maximum in vitro suppression (%) W402X [9]: 3.3 ± 0.1% | MIC [10]: 22 µM (≈ 13.5 µg/mL) | preference for inhibiting translation in prokaryotes versus eukaryotes [11]: about tree order of magnitude

gentamicin [reference compound]
Conc. (concentration at which maximal suppression level was observed) ([1]; in vitro): 30 µg/mL | Supp. level (%), maximal in-vitro mutation suppression [1]: 49 ± 4% | Concentration (μM) at which maximal suppression was observed, R3X [1]: 46 µM | suppression level (%), maximum in vitro, R3X [1]: 50 ± 3% | Trans. level (%) [1]: about 40% | Trans. level (%) ([1]; listed as Gentamicin): 40 ± 9% | Concentration (μM) at which maximal suppression was observed, R245X [2]: 61 µM | suppression level (%), maximum in vitro, R245X [2]: 11 ± 1.5% | difference in suppression of R3X versus R245X [2]: 4.5 fold | Maximum in vitro suppression (%) G542X [3]: 2.8 ± 0.7% | Maximum in vitro suppression (%) Q70X [4]: 1.5 ± 0.4% | Maximum in vitro suppression (%) R245X [5]: 0.90 ± 0.28% | Maximum in vitro suppression (%) R3381X [6]: 3.5 ± 0.7% | Maximum in vitro suppression (%) R3X [7]: 14.0 ± 1.0% | Maximum in vitro suppression (%) W1282X [8]: 1.4 ± 0.5% | Maximum in vitro suppression (%) W402X [9]: 7.2 ± 0.5% | minimal inhibitory concentration (MIC) ([10]; Escherichia coli (R477-100)): 6 µM | preference for inhibiting translation in prokaryotes versus eukaryotes [11]: about tree order of magnitude
